Values quoted from earlier work, collected in US20230181552A1, “EXTERNAL PREPARATION OF IMIDACLOPRID, PREPARATION METHOD AND USE THEREOF” (Qingdao Bolin Biological Technology Co., Ltd., priority 2021, published 2023).

Key:
[1] = test system: postsynaptic nicotinic acetylcholine receptors in the central nervous system of insects; conditions: background statement
[2] = test system: nicotinic receptor sites of mammals; conditions: background statement
rabbits, mice and rats = conditions: sublethal doses, systemic use

Structure (SMILES): O=[N+]([O-])NC1=NCCN1Cc1ccc(Cl)nc1 [Imidacloprid, imidacloprid]
- affinity for postsynaptic nicotinic acetylcholine receptors in the central nervous system of insects [1]: high affinity
- affinity to nicotinic receptor sites of mammals [2]: weak affinity
- pharmacological activity in mammals (rabbits, mice and rats): little pharmacological activity
